Literature values, collected in US20240050339A1, “FORMULATION COMPRISING P-MENTHANE-3,8-DIOL” (priority 2020, published 2024).

Columns and labels:
[1] = test system: Urbani SARS virus; details: PMD alone, from U.S. Pat. No. 7,872,051
[2] = test system: SARS-CoV-2 England-2 isolate; details: one minute, mixed with the virus in the liquid phase

Row | SMILES | maximum log reduction [1] [log] | anti-viral activity in liquid suspension [2]
1 | CC1CCC(C(C)(C)O)C(O)C1 (stereo not drawn) [PMD, 2-(2-Hydroxypropan-2-yl)-5-methylcyclohexan-1-ol] | 2.5 | –
2 | CCO [ethanol] | – | have anti-viral activity
3 | CC(C)O [isopropanol, propan-2-ol] | – | have anti-viral activity
